Measured values from the supplement of paper PMC10883282.
± gives the standard deviation of the averaged measurements.

How the values were obtained:
Experiment in all cases: relative viability vs DMSO control (72 h) (fraction); higher = more viable cells
A204 = tested on: A204
How it was run: (§1)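 Sarcoma cell lines were grown in 384-well plates seeded toward 80–90% confluence and exposed 24 h later to serially diluted compound. After 72 h at 37 °C and 5% CO2, with 0.1% DMSO vehicle and a 5 µM positive control on the plates, ATPLite was read. Relative viability, given as percent growth averaged over up to triplicate wells, was rescaled so that 1 is full and 0 is none.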

G401 = tested on: G401
How it was run: as §1

HS729 = tested on: HS729
How it was run: as §1

KHOS-240S = tested on: KHOS-240S
How it was run: as §1

MES-SA = tested on: MES-SA
How it was run: as §1

SK-ES-1 = tested on: SK-ES-1
How it was run: as §1

SK-LMS-1 = tested on: SK-LMS-1
How it was run: as §1

SW1353 = tested on: SW1353
How it was run: as §1

SW684 = tested on: SW684
How it was run: as §1

SW872 = tested on: SW872
How it was run: as §1

SW982 = tested on: SW982
How it was run: as §1

SYO-1 = tested on: SYO-1
How it was run: as §1

COc1cc(OC)cc(N(CCNC(C)C)c2ccc3ncc(-c4cnn(C)c4)nc3c2)c1 [Erdafitinib]
Conditions	relative viability
A204, 0.00017 µM	1.04 ± 0.034
A204, 0.00051 µM	1.03 ± 0.011
A204, 0.00152 µM	0.971 ± 0.035
A204, 0.00457 µM	0.934 ± 0.057
A204, 0.01372 µM	0.746 ± 0.054
A204, 0.04115 µM	0.595 ± 0.045
A204, 0.1235 µM	0.422 ± 0.07
A204, 0.3704 µM	0.322 ± 0.085
A204, 1.111 µM	0.194 ± 0.0018
A204, 3.333 µM	0.127 ± 0.013
A204, 10 µM	0.0417 ± 0.0062
G401, 0.00017 µM	0.991 ± 0.018
G401, 0.00051 µM	0.976 ± 0.048
G401, 0.00152 µM	0.933 ± 0.032
G401, 0.00457 µM	0.806 ± 0.027
G401, 0.01372 µM	0.707 ± 0.038
G401, 0.04115 µM	0.591 ± 0.018
G401, 0.1235 µM	0.534 ± 0.017
G401, 0.3704 µM	0.472 ± 0.03
G401, 1.111 µM	0.376 ± 0.025
G401, 3.333 µM	0.233 ± 0.01
G401, 10 µM	0.121 ± 0.0045
HS729, 0.00017 µM	1 ± 0.06
HS729, 0.00051 µM	0.868 ± 0.015
HS729, 0.00152 µM	0.844 ± 0.046
HS729, 0.00457 µM	0.813 ± 0.081
HS729, 0.01372 µM	0.74 ± 0.06
HS729, 0.04115 µM	0.613 ± 0.036
HS729, 0.1235 µM	0.604 ± 0.0076
HS729, 0.3704 µM	0.549 ± 0.023
HS729, 1.111 µM	0.487 ± 0.012
HS729, 3.333 µM	0.423 ± 0.015
HS729, 10 µM	0.37 ± 0.011
KHOS-240S, 0.00017 µM	1.06 ± 0.067
KHOS-240S, 0.00051 µM	1.05 ± 0.042
KHOS-240S, 0.00152 µM	1.01 ± 0.027
KHOS-240S, 0.00457 µM	0.999 ± 0.041
KHOS-240S, 0.01372 µM	0.939 ± 0.043
KHOS-240S, 0.04115 µM	0.828 ± 0.036
KHOS-240S, 0.1235 µM	0.762 ± 0.03
KHOS-240S, 0.3704 µM	0.713 ± 0.068
KHOS-240S, 1.111 µM	0.643 ± 0.092
KHOS-240S, 3.333 µM	0.521 ± 0.041
KHOS-240S, 10 µM	0.19 ± 0.0035
MES-SA, 0.00017 µM	0.911 ± 0.054
MES-SA, 0.00051 µM	0.9276 ± 0.0063
MES-SA, 0.00152 µM	0.909 ± 0.05
MES-SA, 0.00457 µM	0.85 ± 0.02
MES-SA, 0.01372 µM	0.837 ± 0.01
MES-SA, 0.04115 µM	0.741 ± 0.044
MES-SA, 0.1235 µM	0.679 ± 0.028
MES-SA, 0.3704 µM	0.667 ± 0.02
MES-SA, 1.111 µM	0.616 ± 0.03
MES-SA, 3.333 µM	0.409 ± 0.014
MES-SA, 10 µM	0.148 ± 0.0092
SK-ES-1, 0.00017 µM	1.02 ± 0.045
SK-ES-1, 0.00051 µM	1.03 ± 0.028
SK-ES-1, 0.00152 µM	1.04 ± 0.058
SK-ES-1, 0.00457 µM	1 ± 0.067
SK-ES-1, 0.01372 µM	0.957 ± 0.018
SK-ES-1, 0.04115 µM	0.876 ± 0.023
SK-ES-1, 0.1235 µM	0.872 ± 0.055
SK-ES-1, 0.3704 µM	0.818 ± 0.053
SK-ES-1, 1.111 µM	0.702 ± 0.033
SK-ES-1, 3.333 µM	0.33 ± 0.013
SK-ES-1, 10 µM	0.181 ± 0.012
SK-LMS-1, 0.00017 µM	0.987 ± 0.047
SK-LMS-1, 0.00051 µM	0.991 ± 0.019
SK-LMS-1, 0.00152 µM	0.994 ± 0.023
SK-LMS-1, 0.00457 µM	1 ± 0.054
SK-LMS-1, 0.01372 µM	0.999 ± 0.045
SK-LMS-1, 0.04115 µM	0.954 ± 0.012
SK-LMS-1, 0.1235 µM	0.946 ± 0.04
SK-LMS-1, 0.3704 µM	0.913 ± 0.015
SK-LMS-1, 1.111 µM	0.839 ± 0.026
SK-LMS-1, 3.333 µM	0.673 ± 0.023
SK-LMS-1, 10 µM	0.183 ± 0.0094
SW684, 0.00017 µM	1.1 ± 0.073
SW684, 0.00051 µM	1.17 ± 0.069
SW684, 0.00152 µM	1.13 ± 0.05
SW684, 0.00457 µM	1.1 ± 0.087
SW684, 0.01372 µM	1.08 ± 0.016
SW684, 0.04115 µM	1.04 ± 0.023
SW684, 0.1235 µM	1.06 ± 0.031
SW684, 0.3704 µM	1.09 ± 0.045
SW684, 1.111 µM	0.998 ± 0.038
SW684, 3.333 µM	0.739 ± 0.014
SW684, 10 µM	0.39 ± 0.013
SW872, 0.00017 µM	1.03 ± 0.05
SW872, 0.00051 µM	1.05 ± 0.075
SW872, 0.00152 µM	1.07 ± 0.062
SW872, 0.00457 µM	1.01 ± 0.083
SW872, 0.01372 µM	0.989 ± 0.081
SW872, 0.04115 µM	0.985 ± 0.073
SW872, 0.1235 µM	0.949 ± 0.091
SW872, 0.3704 µM	0.912 ± 0.067
SW872, 1.111 µM	0.717 ± 0.045
SW872, 3.333 µM	0.5 ± 0.05
SW872, 10 µM	0.274 ± 0.063
SW982, 0.00017 µM	1.01 ± 0.011
SW982, 0.00051 µM	0.997 ± 0.049
SW982, 0.00152 µM	0.954 ± 0.041
SW982, 0.00457 µM	0.992 ± 0.021
SW982, 0.01372 µM	0.984 ± 0.055
SW982, 0.04115 µM	0.958 ± 0.077
SW982, 0.1235 µM	0.953 ± 0.021
SW982, 0.3704 µM	0.888 ± 0.029
SW982, 1.111 µM	0.544 ± 0.013
SW982, 3.333 µM	0.225 ± 0.0086
SW982, 10 µM	0.0452 ± 0.00079
SW1353, 0.00017 µM	1.07 ± 0.026
SW1353, 0.00051 µM	1.01 ± 0.026
SW1353, 0.00152 µM	0.975 ± 0.035
SW1353, 0.00457 µM	0.889 ± 0.058
SW1353, 0.01372 µM	0.859 ± 0.033
SW1353, 0.04115 µM	0.853 ± 0.049
SW1353, 0.1235 µM	0.787 ± 0.066
SW1353, 0.3704 µM	0.781 ± 0.041
SW1353, 1.111 µM	0.745 ± 0.038
SW1353, 3.333 µM	0.57 ± 0.014
SW1353, 10 µM	0.0859 ± 0.01
SYO-1, 0.00017 µM	0.933 ± 0.068
SYO-1, 0.00051 µM	0.814 ± 0.088
SYO-1, 0.00152 µM	0.734 ± 0.077
SYO-1, 0.00457 µM	0.674 ± 0.087
SYO-1, 0.01372 µM	0.588 ± 0.086
SYO-1, 0.04115 µM	0.519 ± 0.053
SYO-1, 0.1235 µM	0.451 ± 0.016
SYO-1, 0.3704 µM	0.396 ± 0.011
SYO-1, 1.111 µM	0.342 ± 0.008
SYO-1, 3.333 µM	0.248 ± 0.018
SYO-1, 10 µM	-0.0109 ± 0.0042
